The values below come from US20230142338A1, “THIOPHENYL DERIVATIVES USEFUL FOR MODULATING NUCLEIC ACID SPLICING” (REMIX THERAPEUTICS INC., priority 2020, published 2023).

What is called AC50 is the concentration giving half of the maximal activity seen. One may read the pIC50 as the negative decadic logarithm of the IC50, by convention in mol/L.

The structures appear in SMILES notation. pIC50: −log10 of the molar value. Where a name gives a salt, the structure may show the parent alone.

Assay type in all cases: cell-based
In assay [1] the test system is HTT CJ mRNA. Description: Splicing assay (RT-qPCR): decrease in HTT canonical junction (CJ) mRNA. To be noted: A673 or K562 cells, 24 hours treatment; concentration having 50% response in CJ mRNA decrease. Here is the method:
(§1) Compounds described herein were used to modulate RNA transcript abundance in cells. The expression of a target mRNA was measured by detecting the formation of an exon-exon junction in the canonical transcript (CJ). A compound mediated exon-inclusion event was detected by observing an increase in formation of a new junction with an alternative exon (AJ). Real-time qPCR assays were used to detect these splicing switches and interrogate the potency of various compounds towards different target genes. A high-throughput real time quantitative PCR (RT-qPCR) assay was developed to measure these two isoforms of the mRNA (CJ and AJ) for an exemplary gene, HTT, together with a control housekeeping gene, GAPDH or GUSB or PPIA, used for normalization. Briefly, the A673 or K562 cell line was treated with various compounds described herein (e.g., compounds of Formula (I)). After treatment, the levels of the HTT mRNA targets were determined from each sample of cell lysate by cDNA synthesis followed by qPCR.
(§2) The A673 cell line was cultured in DMEM with 10% FBS. Cells were diluted with full growth media and plated in a 96-well plate (15,000 cells in 100 ul media per well). The plate was incubated at 37° C. with 5% CO2 for 24 hours to allow cells to adhere. An 11-point 3-fold serial dilution of the compounds was made in DMSO then diluted in media in an intermediate plate. Compounds were transferred from the intermediate plate to the cell plate with the top dose at a final concentration of 10 uM in the well. Final DMSO concentration was kept at or below 0.25%. The cell plate was returned to the incubator at 37° C. with 5% CO2 for an additional 24 hours.
(§3) The K562 cell line was cultured in IMDM with 10% FBS. For K562, cells were diluted with full growth media and plated in either a 96-well plate (50,000 cells in 50 uL media per well) or a 384-well plate (8,000-40,000 cells in 45 uL media per well). An 11-point 3-fold serial dilution of the compounds were made in DMSO then diluted in media in an intermediate plate. Compound was transferred from the intermediate plate to the cell plate with the top dose at a final concentration of 10 uM in the well. Final DMSO concentration was kept at or below 0.25%. Final volume was 100 uL for 96-well plate and 50 uL for 384-well plate. The cell plate was then placed in an incubator at 37° C. with 5% CO2 for 24 hours.
(§4) The cells were then gently washed with 50 uL-100 uL cold PBS before proceeding to addition of lysis buffer. 30 uL-50 uL of room temperature lysis buffer with DNAse I (and optionally RNAsin) was added to each well. Cells were shaken/mixed thoroughly at room temperature for 5-10 minutes for lysis to take place and then 3 uL-5 uL of room temperature stop solution was added and wells were shaken/mixed again. After 2-5 minutes, the cell lysate plate was transferred to ice for RT-qPCR reaction setup. The lysates could also be frozen at −80° C. for later use.
(§5) In some cases, a direct lysis buffer was used. An appropriate volume of 3× lysis buffer (10 mM Tris, 150 mM NaCl, 1.5%-2.5% Igepal and 0.1-1 U/uL RNAsin, pH 7.4) was directly added to either K562 or A673 cells in media and mixed by pipetting 3 times. The plates were then incubated at room temperature with shaking/rocking for 20-50 minutes to allow for lysis to take place. After this time, the cell lysate plate was transferred to ice to set up for the RT-qPCR reactions. The lysates could also be frozen at −80° C. for later use.
(§6) To set up 10 uL RT-qPCR reactions, cell lysates were transferred to 384-well qPCR plates containing the master mix according to the table below. The plates were sealed, gently vortexed, and spun down before the run. The volumes were adjusted accordingly in some instances where the reaction was carried in 20 uL. The table below summarizes the components of the RT-qPCR reactions:
(§7) The RT-qPCR reaction was performed using a QuantStudio (ThermoFisher) under the following fast cycling conditions. […]
For orientation: Quantitative PCR measures a nucleic acid by following its amplification.

Assay [2] has as its system HTT AJ mRNA. Description: Splicing assay (RT-qPCR): increase in HTT alternative junction (AJ) mRNA. The following applies: A673 or K562 cells, 24 hours treatment; concentration having 50% response in AJ mRNA increase. The procedure: as §1, §2, §3, §4, §5, §6, §7
For assay [3], the system named is Target C CJ mRNA. The assay is described as follows: Gene panel canonical junction qPCR assay: Target C. The following applies: Table 3, concentration having 50% response in CJ decrease, read-out: Target C IC50 (decrease in CJ mRNA levels). Here is the method:
as §1, §2, §3, §4, §5, §6, §7

Assay [4] concerns HTT CJ mRNA. Description: Gene panel canonical junction qPCR assay: HTT. To be noted: Table 3, concentration having 50% response in CJ decrease, read-out: HTT IC50 (decrease in CJ mRNA levels). The procedure:
as §1, §2, §3, §4, §5, §6, §7

For assay [5], the system named is SMN2 CJ mRNA. Description: Gene panel canonical junction qPCR assay: SMN2. To be noted: Table 3, concentration having 50% response in CJ decrease, read-out: SMN2 IC50 (decrease in CJ mRNA levels). Here is the method: as §1, §2, §3, §4, §5, §6, §7

For `Cc1cn2cc(NC(=O)c3sc(C4CCN(C)CC4)cc3F)cc(F)c2n1` [Compound 145, 3-fluoro-N-[8-fluoro-2-methylimidazo [1,2-a]pyridin-6-yl]-5-(1-methylpiperidin-4-yl)thiophene-2-carboxamide], the AC50 in assay [1] and in assay [2] was 1000 to 10000 nM in each case. For the same molecule, the pIC50 in assay [3] is 5.00 to 6.00; in assay [4] it was 5.00 to 6.00; in assay [5] it was 6.00 to 7.00.

As to `CCN1CCC(c2cc(F)c(C(=O)Nc3cc(F)c4nc(C)cn4c3)s2)CC1` [Compound 146, 5-(1-ethylpiperidin-4-yl)-3-fluoro-N-[8-fluoro-2-methylimidazo[1,2-a]pyridin-6-yl]thiophene-2-carboxamide], the AC50 in assay [1] and in assay [2] was 1000 to 10000 nM throughout. For the same molecule, the pIC50 in assay [3] was above 7.00; in assay [4] it was 5.00 to 6.00; in assay [5] it was 6.00 to 7.00.

With `Cc1cn2cc(NC(=O)c3sc(C4C[C@@H](C)N[C@@H](C)C4)cc3F)cc(F)c2n1` (stereo partly drawn) [Compound 147, 5-[(2R,6S)-2,6-dimethylpiperidin-4-yl]-3-fluoro-N-[8-fluoro-2-methylimidazo[1,2-a]pyridin-6-yl]thiophene-2-carboxamide], the AC50 in assay [1] lay within 100 to 1000 nM; in assay [2], 1000 to 10000 nM. Also, the pIC50 in assay [3] was 5.00 to 6.00; in assay [4], 6.00 to 7.00; in assay [5], above 7.00.

As to `Cc1cn2cc(NC(=O)c3sc(N(C)C4CC(C)(C)NC(C)(C)C4)cc3F)cc(F)c2n1` [Compound 149, 3-fluoro-N-[8-fluoro-2-methylimidazo[1,2-a]pyridin-6-yl]-5-[methyl(2,2,6,6-tetramethylpiperidin-4-yl)amino]thiophene-2-carboxamide], the AC50 in assay [1] and in assay [2] was above 10000 nM each time. Further, the pIC50 is below 8.00 in assay [3], below 8.00 in assay [4] and 6.00 to 7.00 in assay [5].

With `Cc1cn2cc(NC(=O)c3sc(N(C)C4CCN(C)CC4)cc3F)cc(F)c2n1` [Compound 150, 3-fluoro-N-[8-fluoro-2-methylimidazo[1,2-a]pyridin-6-yl]-5-[methyl(1-methylpiperidin-4-yl)amino]thiophene-2-carboxamide], the AC50 was 1000 to 10000 nM in assay [1] and above 10000 nM in assay [2]. Besides, the pIC50 in assay [3], in assay [4] and in assay [5] was 5.00 to 6.00 each time.

As for `CC1CN(c2cc(F)c(C(=O)Nc3ccc4cn(C)nc4c3)s2)CCN1` (centres unmarked) [Compound 162, 3-fluoro-N-(2-methylindazol-6-yl)-5-(3-methylpiperazin-1-yl)thiophene-2-carboxamide], the AC50 in assay [1] and in assay [2] was above 10000 nM each time. In addition, the pIC50 in assay [3], in assay [4] and in assay [5] was below 8.00 throughout.

For the molecule `CC1CN(c2cc(F)c(C(=O)Nc3cc(F)c4cn(C)nc4c3)s2)CCN1` (centres unmarked) [Compound 163, 3-fluoro-N-(4-fluoro-2-methylindazol-6-yl)-5-(3-methylpiperazin-1-yl)thiophene-2-carboxamide], the AC50 in assay [1] and in assay [2] was above 10000 nM in each case. Moreover, the figures for the pIC50 in assay [3], in assay [4] and in assay [5] were above 7.00, below 8.00 and below 8.00, respectively.

Take `Cc1nc2c(F)cc(NC(=O)c3sc(N4CCNC(C)C4)cc3F)cc2o1` (centres unmarked) [Compound 164, 3-fluoro-N-(4-fluoro-2-methyl-1,3-benzoxazol-6-yl)-5-(3-methylpiperazin-1-yl)thiophene-2-carboxamide]: the concentration at half-maximal activity (AC50) in assay [1] and in assay [2] was 1000 to 10000 nM each time. The values for the pIC50 in assay [3], in assay [4] and in assay [5] were 6.00 to 7.00, 5.00 to 6.00 and 6.00 to 7.00, respectively.

As for `Cc1nc2c(F)cc(NC(=O)c3sc(N4CCNC(C)C4)cc3F)cc2s1` (centres unmarked) [Compound 165, 3-fluoro-N-(4-fluoro-2-methyl-1,3-benzothiazol-6-yl)-5-(3-methylpiperazin-1-yl)thiophene-2-carboxamide], the AC50 in assay [1] and in assay [2] was above 10000 nM in each case. Further, the pIC50 in assay [3] is 6.00 to 7.00; in assay [4], below 8.00; in assay [5], 5.00 to 6.00.

On to `Cc1cn2cc(NC(=O)c3sc(N4CCNC(C)C4)cc3F)c(C)cc2n1` (centres unmarked) [Compound 166, N-[2,7-dimethylimidazo[1,2-a]pyridin-6-yl]-3-fluoro-5-(3-methylpiperazin-1-yl)thiophene-2-carboxamide], for which the AC50 in assay [1] and in assay [2] was above 10000 nM each time. The pIC50 in assay [3] is below 8.00; in assay [4], below 8.00; in assay [5], 5.00 to 6.00.

As to `Cc1cn2cc(NC(=O)c3sc(N4CCNC(C)C4)cc3F)ncc2n1` (centres unmarked) [Compound 167, 3-fluoro-N-[2-methylimidazo[1,2-a]pyrazin-6-yl]-5-(3-methylpiperazin-1-yl)thiophene-2-carboxamide], the AC50 in assay [1] and in assay [2] was above 10000 nM throughout. The figures for the pIC50 in assay [3], in assay [4] and in assay [5] were below 8.00, below 8.00 and 6.00 to 7.00, respectively.

For `Cc1cn2nc(NC(=O)c3sc(N4CCNC(C)C4)cc3F)nc2c(C)n1` (centres unmarked) [Compound 169, hydrochloride], the AC50 in assay [1] and in assay [2] was above 10000 nM each time. The pIC50 in assay [3], in assay [4] and in assay [5] was below 8.00 throughout.

As to `Cc1cn2cc(NC(=O)c3sc(N4CCNC(C)C4)cc3F)cc(C)c2n1` (centres unmarked) [Compound 172, N-[2,8-dimethylimidazo[1,2-a]pyridin-6-yl]-3-fluoro-5-(3-methylpiperazin-1-yl)thiophene-2-carboxamide], the AC50 in assay [1] and in assay [2] was above 10000 nM throughout. Further, the pIC50 in assay [3] is below 8.00; in assay [4] it was below 8.00; in assay [5], 5.00 to 6.00.

Regarding `COc1cc(C2CCNCC2)sc1C(=O)Nc1cc(F)c2nc(C)cn2c1` [Compound 173, N-[8-fluoro-2-methylimidazo [1,2-a]pyridin-6-yl]-3-methoxy-5-(piperidin-4-yl)thiophene-2-carboxamide], the half-maximal activity concentration (AC50) in assay [1] and in assay [2] was above 10000 nM throughout. Further, the pIC50 in assay [3], in assay [4] and in assay [5] was below 8.00 throughout.

For `Cc1cn2cc(NC(=O)c3ccc(C4CCNCC4)s3)cc(F)c2n1` [Compound 174, N-[8-fluoro-2-methylimidazo[1,2-a]pyridin-6-yl]-5-(piperidin-4-yl) thiophene-2-carboxamide], the AC50 in assay [1] and in assay [2] was 1000 to 10000 nM in each case. Moreover, the pIC50 was 5.00 to 6.00 in assay [3], 6.00 to 7.00 in assay [4] and 6.00 to 7.00 in assay [5].

For `Cc1cn2cc(NC(=O)c3sc(C4CCNCC4)cc3F)c(C)cc2n1` [Compound 178, N-[2,7-dimethylimidazo[1,2-a]pyridin-6-yl]-3-fluoro-5-(piperidin-4-yl)thiophene-2-carboxamide], the AC50 in assay [1] and in assay [2] was 1000 to 10000 nM throughout. Moreover, the figures for the pIC50 in assay [3], in assay [4] and in assay [5] were below 8.00, 5.00 to 6.00 and 6.00 to 7.00, respectively.
